# Entries after “also recorded” stand apart in the source; their conditions may differ.
# Columns and labels:
# rat ovarian aromatase = biological target: T1, rat ovarian aromatase (Rattus norvegicus, UniProt P22443); assay: in vivo effect on rat ovarian aromatase activity (3H-water method); settings: for in vivo ovarian aromatase inactivation: Example 7, 50 mg/kg body weight/day, regularly cycling BUF/N rats, compared to sesame oil control; for suppression of the ovarian aromatase activity: 50 mg/kg body weight/day s.c. twice daily for four days, 4-day cycling BUF/N rats
# T1 construct: from tissue; host or cells: ovaries of BUF/N inbred female rats, 105,000 x g precipitate of the homogenate
# T1 sequence (P22443 1-508): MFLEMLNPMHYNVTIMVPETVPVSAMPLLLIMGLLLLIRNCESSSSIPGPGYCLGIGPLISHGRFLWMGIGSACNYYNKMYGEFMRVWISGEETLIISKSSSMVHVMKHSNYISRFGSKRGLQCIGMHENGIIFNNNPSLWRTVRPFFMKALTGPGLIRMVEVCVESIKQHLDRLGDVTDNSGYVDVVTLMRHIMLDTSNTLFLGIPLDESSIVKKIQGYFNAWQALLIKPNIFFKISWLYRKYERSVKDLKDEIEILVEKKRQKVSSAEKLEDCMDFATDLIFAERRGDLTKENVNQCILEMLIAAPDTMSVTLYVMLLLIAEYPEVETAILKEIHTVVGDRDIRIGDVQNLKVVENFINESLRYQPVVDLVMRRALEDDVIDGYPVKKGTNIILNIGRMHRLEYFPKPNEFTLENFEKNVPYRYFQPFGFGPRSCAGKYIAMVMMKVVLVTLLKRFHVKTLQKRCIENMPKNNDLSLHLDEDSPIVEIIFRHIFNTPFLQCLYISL
# Procedure: 5α-DHNET (30 mg/ml sesame oil suspension) was injected s.c. twice daily for four days at a dose of 50 mg/kg body weight/day to BUF/N inbred female rats (50-80 days old) showing regular 4-day estrus cycles starting on the estrus day. The control group received injections of sesame oil in the same manner. Both ovaries were removed 3-4 hours after the final injection. The 105,000×g precipitate fraction of the ovarian homogenate was used for the aromatase assay. Aromatase activity was determined by the ^3 H-water method (F. L. Bellino, S. S. H. Gilani, S. S. Eng, Y. Osawa and W. L. Duax, Biochemistry, 15, 4730-4736 (1976)). The sedimented ovarian enzyme preparation was homogenized in 0.1 M phosphate buffer (pH 7.5) and incubated with [1β-^3 H, 4-^14 C]androstenedione (3.18×10^5 dpm ^3 H, 1.18×10^4 dpm ^14 C, 100.2 ng), NADPH (1 mg) and BSA (5 mg) in 0.1 M phosphate buffer (pH 7.5) in a total volume of 1.5 ml for 30 min at 37° C. Trichloroacetic acid solution (0.2 ml of 10% aqueous solution) was added to stop the enzyme reaction. Activated charcoal was added to the mixture and the spun supernatant was passed through a cotton plugged disposable pipet. The filtrate was counted for simultaneous ^3 H and ^14 C in a liquid scintillation spectrophotometer. The ^3 H-water released from the 1β-^3 H labeled androgen quantitatively corresponds to estrogen formation. The results of the in vivo aromatase suppression assay with 5α-DHNET, 6β-bromoandrostenedione (6β-BRA), and 6α-bromoandrostenedione (6α-BRA) are given in FIGS. 3, 4, and 5, respectively. 5α-DHNET suppressed 67% of the ovarian aromatase, whereas 6β-bromoandrostenedione suppressed 72% and 6α-bromoandrostenedione only an insignificant 10%.
# A test of the acetate (C2) and n-butyrate (C4) on the in vivo effect on Ovarian Aromatase Activity was conducted. […] All procedures are the same as described in the above examples. […] The slightly better results obtained with the N-butyrate may be due to its higher solubility in sesame oil, indicating a higher retention in the body.
# [1] = system: estrus cycle of BUF/N inbred female rats; assay: effect on the rat estrus cycle; type: in vivo; settings: for effect on the estrus cycle: single s.c. dose 50 mg/kg body weight on proestrus day
# Procedure: BUF/N inbred female rats (50-80 days old) showing regular 4-day estrus cycles were selected by a daily vaginal smear test. A fine powder of the steroid sample was suspended in sesame oil (30 mg/ml) and injected subcutaneously on the proestrus day at a single dose of 50 mg/kg body weight. Vaginal smears were examined daily until normal estrus returned for at least three cycles. The results from the single injection of 5α-DHNET are given in FIG. 1 and those for 6β-bromoandrostenedione are given in FIG. 2 for comparison.
# [2] = system: NMU-induced breast carcinomas of BUF/N rats; assay: effect on breast tumor incidence, protocol III; type: in vivo, rat
# Procedure: The protocol was further modified to evaluate the generality of the effect of 5α-DHNET on breast carcinomas. […] Oophorectomy was also carried out at 3 weeks after the NMU injection. After 37 weeks of monitoring, the tumor incidence was 87%, 38%, and 19% for the control, 5α-DHNET,and OVX group, respectively. The average number of tumors per tumor carrying animal was 2.8, 1.5 and 1.0 for the central, 5α-DHNET, and OVX group, respectively.
# [3] = system: human placental aromatase; assay: in vitro assay with human placental aromatase; type: biochemical; settings: in vitro assays
# Procedure: 5α-DHNET was previously found to be a very weak in vitro aromatase inhibitor (Y. Osawa, Y. Osawa, C. Yarborough & L. Borzynski, Biochem Soc. Transactions, 656-659 (1983)), requiring a 50 μM concentration for a partial inhibition of human placental aromatase in vitro.
# [4] = rat, in vivo
# [5] = system: NMU-induced breast carcinomas of BUF/N rats; assay: preventive effect on incidence of NMU-induced breast carcinoma, first protocol; type: in vivo, rat
# Procedure: (§1) The animal model for human mammary carcinomas developed by Gullino et al. (P. M. Gullino, H. M. Pettigrew, and F. H. Grantham, J. Natl. Cancer Inst., 54, 401-414 (1975)) was used for this evaluation of 5α-DHNET.N-Nitrosomethylurea (NMU), wet with 3% acetic acid, was dissolved in distilled water (10 mg/ml) and given in three intravenous injections at a dose of 50 mg/kg body weight to BUF/N inbred female rats of 50 days of age on the first injection. The second injection was 4 weeks and the third injection was 8 weeks after the initial administration. The onset of tumors was monitored by daily visual inspection and by palpation of the mammary regions three times a week. The increase in tumor size was monitored by vernier caliper measurements of the subcutaneous mass. One-half the average of the longest and shortest tumor diameters was taken as the value of r in the formula 4/3 πr^3 used to estimate tumor volume. 5α-DHNET in sesame oil was given i.p. daily at a dose of 50 mg/kg body weight/day for 3 weeks to BUF/N female rats having at least one tumor, 2 cm or larger. The number and size of the rumors were monitored on 12 treated and 13 vehicle-only control animals. The mean initial volume of the tumors was 5.10 and 5.53 ml for the control and treated group, respectively. While the tumors in the control group grew very rapidly, growth arrest was clearly observed in 75% (9/12) of the treated group. The death rate was lower in the treated group (3/12 in 4 weeks) than in the control (5/13 in 3 weeks). […] Averaged relative tumor volume is compared in FIG. 7. This also indicates the suppression of tumor growth by the 5α-DHNET treatment. While 24 new tumors developed in 9 control rats in 3 weeks, only 7 developed in 11 treated rats.
# The preventive effect of 5α-DHNET to lower the incidence of breast carcinoma was assessed by use of the same animal model as in Example 3 but by modification of the administration protocol. The vehicle-only control was prepared as described in Example 3. Oophorectomy was carried out at the 4th week. 5α-DHNET at a dose of 50 mg/kg body weight/day was given i.p. daily for one week starting at the 4th week. The onset of tumors, their number and location in each animal were recorded daily. The results are given in FIGS. 9 and 10 and in Table 2. The control group developed tumors in 100% (16/16) of the animals by the 98th day after the first NMU injection. At this point tumor incidence for the 5α-DHNET treated and oophorectomized groups was 13% (2/16) and 38% (6/16), respectively. […] At the 180th day the death rate for the 5α-DHNET treated and oophorectomized group was 25% and 31%, respectively, compared to 69% for the control group. The mean latent period of tumor development was 72, 101, and 116 days for the control, OVX, and 5α-DHNET group, respectively.
# [6] = system: NMU-induced breast carcinomas of BUF/N rats; assay: effect on breast tumor incidence, protocol II; type: in vivo, rat
# Procedure: The preventive and suppressive effect of 5α-DHNET on breast carcinomas was further examined in order to ascertain that this agent is effective under general conditions rather than limited to a specifically controlled protocol. Only a single dose of NMU was given to the BUF/N rats at 50th day of age and an oophorectomy was carried our at the 6th week after the NMU injection. The 5α-DHNET group received the agent for one week starting at the 6th week at a dose of 50 mg/kg body weight/day as given in FIG. 11. Monitoring was carried out as described in Example 4. After 41 weeks of observation, the tumor incidence was 65%, 33%, and 38% for the control, 5α-DHNET, and OVX group, respectively. The average number of tumors per tumor carrying rat was 2.6, 1.5, and 1.0 for the control, 5α-DHNET, and OVX group, respectively.
# [7] = system: NMU-induced breast carcinomas of BUF/N rats; assay: effect on growth of NMU-induced breast carcinomas; type: in vivo, rat
# Procedure: as §1
# [8] = system: human placental aromatase; settings: cited from earlier work; for concentration for inhibition of human placental aromatase in vitro: for 5α-DHNET a partial inhibition
# SD rat (SPF) = assay: minimum lethal dose in SD rat; type: in vivo
# Procedure: For example, the minimum lethal dose of 5α-DHNET for SD rat (SPF) is greater than 5,000 mg/kg.
structure (smiles),measurement,setting,value
"C#C[C@]1(OC(C)=O)CC[C@H]2[C@@H]3CC[C@H]4CC(=O)CC[C@@H]4[C@H]3CC[C@@]21C [5α-DHNET Ac, 5α-DHNET acetate]",in vivo ovarian aromatase inactivation,rat ovarian aromatase,68.2%
"C#C[C@]1(OC(=O)CCC)CC[C@H]2[C@@H]3CC[C@H]4CC(=O)CC[C@@H]4[C@H]3CC[C@@]21C [5α-DHNET But, 5α-DHNET butyrate]",in vivo ovarian aromatase inactivation,rat ovarian aromatase,79.4%
"C#C[C@]1(O)CC[C@H]2[C@@H]3CC[C@H]4CC(=O)CC[C@@H]4[C@H]3CC[C@@]21C [5α-DHNET, 5α-dihydro-19-norethisterone]",animals with cessation of estrus cycles / animals tested,[1]; single s.c. dose 50 mg/kg body weight,4/4
same,effect on the estrus cycle,[1],cessation of the estrus cycles for at least four cycles
same,tumor incidence,"[2]; after 37 weeks, treatment 3 weeks after single NMU dose",38%
same,average number of tumors per tumor carrying animal,[2]; protocol III,1.5
same,potency as aromatase inhibitor relative to 6α- and 6β-bromoandrostenedione,[3],thousand-fold less potent
same,body weight compared to control rats,[4],did not show any significant difference of body weight from the control rats
same,tumor incidence,"[5]; 98th day after first NMU injection, 50 mg/kg/day i.p. one week from 4th week, 2/16",13%
same,death rate,"[5]; 180th day after first NMU injection, 4/16",25%
same,% Tumor Incidence,"[5]; 180th day after first NMU injection, 8/16",50%
same,effect on incidence of breast carcinoma and death rate,"[5]; Examples 4-6, given at different times",significantly lower the incidence of breast carcinoma and the death rate as effectively as complete oophorectomy
same,Average No. of tumors per tumor-carrying rat,[5]; first protocol,1.8
same,Mean Latent Period of tumor development,[5]; first protocol,116 days
same,suppression of the ovarian aromatase activity,rat ovarian aromatase,67%
same,in vivo ovarian aromatase inactivation,rat ovarian aromatase,67.9%
same,tumor incidence,"[6]; after 41 weeks, single NMU dose, 50 mg/kg/day for one week from 6th week",33%
same,average number of tumors per tumor carrying rat,[6]; protocol II,1.5
same,effect on growth of breast carcinomas,[7]; 50 mg/kg body weight/day daily for three weeks,significantly suppressed the growth of breast carcinomas
same,animals with growth arrest of tumors,"[7]; 50 mg/kg body weight/day i.p. for 3 weeks, 9/12 treated",75%
same,death rate,"[7]; 50 mg/kg body weight/day i.p. for 3 weeks, in 4 weeks",3/12
same,initially observed tumors disappeared,"[7]; 3 week period, 6/47",13%
same,tumors regressed,"[7]; 3 week period, 20/48",42%
same,tumors growing,"[7]; 3 week period, 28/48",58%
same,Total No. of Tumors disappeared,[7]; 3 wk,6
same,Total No. of Tumors growing,[7]; 3 wk,28
same,Total No. of Tumors regressed,[7]; 3 wk,20
same,share of responded animals maintained without a growth of tumors after stopping administration,[7]; another 3 weeks after stopping,approximately half
same,Total No. of Tumors 3 wk,"[7]; end of 3 wk treatment, 11 rats",48
same,Total No. of Tumors newly developed,"[7]; in 3 weeks, 11 treated rats",7
same,Total No. of Tumors start,"[7]; start of treatment, 11 rats",47
same,concentration for inhibition of human placental aromatase in vitro,[8],50 µM
same,in vitro aromatase inhibitory activity,[8]; previous in vitro studies,essentially inactive
same,minimum lethal dose,SD rat (SPF),"greater than 5,000 mg/kg"
"C[C@]12CCC(=O)C=C1[C@@H](Br)C[C@@H]1[C@@H]2CC[C@]2(C)C(=O)CC[C@@H]12 [6α-bromoandrostenedione, reference compound]",suppression of the ovarian aromatase activity,rat ovarian aromatase,10%
same,concentration for inhibition of human placental aromatase in vitro,[8],0.0082 µM
"C[C@]12CCC(=O)C=C1[C@H](Br)C[C@@H]1[C@@H]2CC[C@]2(C)C(=O)CC[C@@H]12 [6β-bromoandrostenedione, reference compound]",effect on the estrus cycle,[1]; 50 mg/kg,no effect on the cycle; also recorded: failed to affect the estrus cycle
same,suppression of the ovarian aromatase activity,rat ovarian aromatase,72%
same,concentration for inhibition of human placental aromatase in vitro,[8],0.056 µM
